The record followed here is patent US9150567B2, “Substituted tetrazol-1-yl-phenoxymethyl-thiazol-2-yl-piperidinyl-pyrimidine salts” (CYMABAY THERAPEUTICS, INC., priority 2009, dated 2015).

The term half-life denotes the time needed for the level to fall by half in the phase considered. Usually Cmax stands for the peak of the concentration-time curve. The Tmax is the time at which the peak concentration occurs.

Series [1] can be described thus: Moisture sorption of HCl Form I. Type of series: physicochemical. From the text: A steady ˜0.9 wt % gain was observed between ˜5% and ˜95% RH. A complete desorption occurred upon decreasing relative humidity to ˜5% (˜0.9 wt % loss between ˜95% and ˜5% RH).
Series [2] in a line: Systemic exposure and pharmacokinetics after single oral gavage dose of 200 mg/kg in fasted male SD rats. Type of series: in vivo, Sprague Dawley (SD) rats. To be noted: for Fold difference in plasma concentration compared to micronized free-base form: 30 hours post-dose; for Increase of systemic drug exposure in AUC0-t compared with micro MBX-2982 (free base): equivalent amounts. As to the method: Two studies were conducted in order to compare the systemic exposure and pharmacokinetics (PK) of microcrystalline MBX-2982 and salt forms of MBX-2982 in fasted male Sprague Dawley (SD) rats following single oral gavage (PO) doses of 200 mg/kg. Four salt foms of MBX-2982 were investigate in the studies. The tested salts were HCl Form I, HCl salt Form II, mesylate salt and the tosylate salt.
Preparation of samples was performed by solvent precipitation of plasma proteins in a 1 mL/well 96-well plate. Standards were prepared by spiking 10 μL of blank plasma with 10 μL of standard solution (acetonitrile containing MBX-2982 at 0.01, 0.02, 0.05, 0.1, 0.2, 0.5, 1, 2, 5, 10, 20, 50 and 100 μg/mL) and 300 μL of 0.1% formic acid in acetonitrile containing 0.2 μg/mL internal standard. Plasma samples were prepared by adding 10 μL of plasma sample, 10 μL of acetonitrile, and 300 μL of 0.2 μg/mL internal standard in 0.1% formic acid in acetonitrile. After addition of the organic solvents, all samples were vortexed briefly and centrifuged at 3600 rpm for 10 minutes. Some of the samples were diluted 1.3 to 2-fold with blank plasma. An aliquot of the supernatant (25 μL) was transfer to a 1 mL/well 96-well plate and mixed with 200 μL water/ACN (50/50, v/v) and injected into the HPLC.
The suspensions for microcrystalline MBX-2982 (free base) and salt forms of MBX-2982 were prepared in 1% carboxymethylcellulose and 2% tween 80 in water (w/w/v).
Five groups of animals were given microcrystalline and salt forms suspension doses of MBX-2982 orally at 200 mg/kg, respectively. Food was withheld the night before dose and returned nine hours after dosing. Blood samples were collected at 0.25, 0.5, 1, 2, 4, 6, 9, 24, 30 and 48 h post dose. MBX-2982 plasma concentration from these samples was analyzed by a non-validated high performance liquid chromatography in conjunction with mass spectrometry (LC-MS/MS) method.
Plasma concentration-time data for individual animals were analyzed using WinNonlin software (Professional, version 5.0.1; Pharsight Corp.). A non-compartmental model (model 200) was used. Peak area ratios of MBX-2982 to internal standard and concentration were fitted to a quadratic equation (Calibration Curve) with 1/x weighting using a quadratic regression program in Analyst version 1.4.2 (Applied Biosystem Inc). The equations were then used to interpolate the concentrations of MBX-2982 in samples from peak area to internal standard ratio.
The following pharmacokinetic parameters were calculated: • 1) Cmax: Maximum (peak) plasma concentration • 2) Tmax: Time at which Cmax occurred • 3) t1/2: Terminal phase half-life • 4) AUC0-t: Area under the concentration-time curve from time 0 to last measurable concentration • 5) AUC0-inf: Area under the concentration-time curve from time 0 extrapolated to infinity

Series [3] is described as follows: Overnight / elevated RH stress of the crystalline salts. Format: physicochemical. To be noted: overnight / elevated relative humidity stress.
[4] abbreviates: fasted male SD rats, single PO dose 200 mg/kg, mean ± SD.

SMILES strings stand for the structures. Where a name gives a salt, the structure may show the parent alone. Read-outs that look alike come from different tables or passages of the source.

`CCc1cnc(N2CCC(c3nc(COc4ccc(-n5cnnn5)cc4)cs3)CC2)nc1.Cl` [HCl Salt Form I, 5-ethyl-2-{4-[4-(4-tetrazol-1-yl-phenoxymethyl)-thiazol-2-yl]-piperidin-1-yl}-pyrimidine hydrochloride]: in series [1] (between ~5% and ~95% RH), the “Weight gain on sorption” value is given as about 0.9 wt %. Moreover, the “Weight loss on desorption” value in series [1] (between ~95% and ~5% RH) is about 0.9 wt %. In addition, the “Weight loss upon equilibration” value in series [1] (equilibration at ~5% RH) is recorded as about 0.3 wt %. Moreover, the “Mean plasma concentration of MBX-2982” value in series [2] (0.5 h post dose, fasted male SD rats, PO 200 mg/kg, mean ± SD, hydrochloride) came to 9.79 ± 3.73 µg/mL; in series [2] (1 h post dose, fasted male SD rats, PO 200 mg/kg, mean ± SD, hydrochloride), 15.5 ± 3.15 µg/mL; in series [2] (2 h post dose, fasted male SD rats, PO 200 mg/kg, mean ± SD, hydrochloride), 24.2 ± 3.35 µg/mL; in series [2] (4 h post dose, fasted male SD rats, PO 200 mg/kg, mean ± SD, hydrochloride) it was 31.4 ± 7.10 µg/mL; in series [2] (6 h post dose, fasted male SD rats, PO 200 mg/kg, mean ± SD, hydrochloride), 28.1 ± 8.46 µg/mL; in series [2] (9 h post dose, fasted male SD rats, PO 200 mg/kg, mean ± SD, hydrochloride), 23.8 ± 6.99 µg/mL. Besides, the “Mean plasma concentration of MBX-2982” value in series [2] (24 h post dose, fasted male SD rats, PO 200 mg/kg, mean ± SD, hydrochloride) is 7.43 ± 9.63 µg/mL; in series [2] (24 h post dose, fasted male SD rats, PO 200 mg/kg, mean ± SD, listed as HCl form I, hydrochloride), 7.3 µg/mL; in series [2] (30 h post dose, fasted male SD rats, PO 200 mg/kg, mean ± SD, hydrochloride), 7.52 ± 12.63 µg/mL; in series [2] (48 h post dose, fasted male SD rats, PO 200 mg/kg, mean ± SD, hydrochloride), 1.08 ± 2.31 µg/mL. For the same compound, the “Fold difference in plasma concentration compared to micronized free-base form” value in series [2] (male SD rats, PO 200 mg/kg, listed as HCl form I, hydrochloride) was determined as 94 fold. Moreover, in series [2] (male SD rats, PO 200 mg/kg, hydrochloride), the “Increase of systemic drug exposure in AUC0-t compared with micro MBX-2982 (free base)” value stood at 2.4 fold. In addition, the concentration at 30 h in series [2] (male, Sprague-Dawley, rat, plasma, po, 30 h post dose, male SD rats, PO 200 mg/kg, read-out: Plasma level at 30 hours post-dose) was determined as 0.00752 µg/mL. In series [2] (male, Sprague-Dawley, rat, plasma, po, fasted male SD rats, single PO dose 200 mg/kg, mean ± SD), this compound gave a half-life of 4.01 ± 1.68 h. The AUC(0-t) stood at 454 ± 98.4 µg·h/mL in series [2] (male, Sprague-Dawley, rat, plasma, po, fasted male SD rats, single PO dose 200 mg/kg, mean ± SD, read-out: AUC0-24) and 571 ± 249 µg·h/mL in series [2] (male, Sprague-Dawley, rat, plasma, po, fasted male SD rats, single PO dose 200 mg/kg, mean ± SD, read-out: AUC0-t). For the same compound, the AUC0-inf in series [2] (male, Sprague-Dawley, rat, plasma, po, fasted male SD rats, single PO dose 200 mg/kg, mean ± SD, read-out: AUC0-inf) worked out at 536 ± 29.9 µg·h/mL. Besides, the maximum concentration (Cmax) in series [2] (male, Sprague-Dawley, rat, plasma, po, fasted male SD rats, single PO dose 200 mg/kg, mean ± SD, read-out: Cmax) was determined as 31.2 ± 7.41 µg/mL. Further, the Tmax in series [2] (male, Sprague-Dawley, rat, plasma, po, fasted male SD rats, single PO dose 200 mg/kg, mean ± SD, read-out: Tmax) amounted to 7.25 ± 9.25 h.
With `CCc1cnc(N2CCC(c3nc(COc4ccc(-n5cnnn5)cc4)cs3)CC2)nc1` [Tosylate Salt, 5-ethyl-2-{4-[4-(4-tetrazol-1-yl-phenoxymethyl)-thiazol-2-yl]-piperidin-1-yl}-pyrimidine], the “Appearance of the material after RH stress” value in series [3] is “remained a free flowing powder”. Further, the “Mean plasma concentration of MBX-2982” value in series [2] (0.5 h post dose, fasted male SD rats, PO 200 mg/kg, mean ± SD) was determined as 10.1 ± 2.45 µg/mL; in series [2] (1 h post dose, fasted male SD rats, PO 200 mg/kg, mean ± SD), 13.0 ± 3.33 µg/mL; in series [2] (2 h post dose, fasted male SD rats, PO 200 mg/kg, mean ± SD), 19.7 ± 2.55 µg/mL; in series [2] (4 h post dose, fasted male SD rats, PO 200 mg/kg, mean ± SD) it was 23.6 ± 6.90 µg/mL; in series [2] (6 h post dose, fasted male SD rats, PO 200 mg/kg, mean ± SD), 20.3 ± 11.2 µg/mL; in series [2] (9 h post dose, fasted male SD rats, PO 200 mg/kg, mean ± SD) it was 18.6 ± 10.55 µg/mL. For the same compound, the “Mean plasma concentration of MBX-2982” value amounted to 4.2 ± 5.51 µg/mL in series [2] (24 h post dose, fasted male SD rats, PO 200 mg/kg, mean ± SD); 4.2 µg/mL in series [2] (24 h post dose, fasted male SD rats, PO 200 mg/kg, mean ± SD, listed as tosylate); 3.18 ± 5.88 µg/mL in series [2] (30 h post dose, fasted male SD rats, PO 200 mg/kg, mean ± SD); 3.18 µg/mL in series [2] (30 h post dose, fasted male SD rats, PO 200 mg/kg, mean ± SD, listed as tosylate); 0.02 ± 0.01 µg/mL in series [2] (48 h post dose, fasted male SD rats, PO 200 mg/kg, mean ± SD). The “Fold difference in plasma concentration compared to micronized free-base form” value in series [2] (male SD rats, PO 200 mg/kg) is 40 fold. In series [2] (setting [4]), this compound registered an AUC0-24 of 342 ± 117 µg·h/mL. Also, in series [2] (setting [4]), the AUC0-inf was determined as 393 ± 98.1 µg·h/mL. In series [2] (setting [4]), this compound showed an AUC(0-t) of 392 ± 98.2 µg·h/mL. Further, the maximum concentration (Cmax) in series [2] (setting [4]) was 26.1 ± 7.98 µg/mL. Further, the time to peak (Tmax) in series [2] (setting [4]) stood at 4.00 ± 1.63 h. In series [2] (setting [4]), the t1/2 worked out at 3.20 ± 0.88 h. The “Increase of systemic drug exposure in AUC0-t compared with micro MBX-2982 (free base)” value in series [2] (male SD rats, PO 200 mg/kg) came out at 1.7 fold.
